# According to PubChem BioAssay (NCI):
#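 Interpolation was linear, between the two tested concentrations surrounding the appropriate level; five concentrations were tested over 48 hours in 96-well plates. The concentration for full growth arrest is given as TGI.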
# How the values were obtained:
# Experiment in all cases: DTP human tumour cell line panel, 48 h
# [1] = tested on: A549 NSCLC
# [2] = tested on: SK-MEL-5 melanoma
# [3] = tested on: MDA-MB-435
# [4] = tested on: SF-295 CNS
# [5] = tested on: BT-549 breast
# [6] = tested on: SF-539 CNS
# [7] = tested on: A498 renal
# [8] = tested on: SK-OV-3 ovarian
# [9] = tested on: HOP-92 NSCLC
# [10] = tested on: NCI-H23 lung
# [11] = tested on: CAKI-1 renal
# [12] = tested on: HOP-62 NSCLC
# [13] = tested on: MCF7 breast
# [14] = tested on: HL-60(TB) leukemia
# [15] = tested on: SN12C renal
# [16] = tested on: MALME-3M melanoma
# [17] = tested on: RPMI-8226 leukemia
# [18] = tested on: CCRF-CEM leukemia
# [19] = tested on: OVCAR-4 ovarian
# [20] = tested on: SF-268 CNS
# [21] = tested on: HCC-2998 colon
# [22] = tested on: IGROV1 ovarian
# [23] = tested on: RXF 393 renal
# [24] = tested on: NCI-H226 lung
# [25] = tested on: MDA-MB-231 breast
# [26] = tested on: T-47D breast
# [27] = tested on: NCI/ADR-RES ovarian
# [28] = tested on: OVCAR-3 ovarian
# [29] = tested on: OVCAR-5 ovarian
# [30] = tested on: TK-10 renal
# [31] = tested on: NCI-H522 lung
# [32] = tested on: 786-0 renal
# [33] = tested on: UACC-62 melanoma
# [34] = tested on: OVCAR-8 ovarian
# [35] = tested on: MOLT-4 leukemia
# [36] = tested on: K-562 leukemia
# [37] = tested on: SR leukemia
# [38] = tested on: PC-3 prostate
# [39] = tested on: HT29 colon
# [40] = tested on: ACHN renal
# [41] = tested on: SNB-75 CNS
# [42] = tested on: EKVX NSCLC
# [43] = tested on: LOX IMVI melanoma
# [44] = tested on: HCT-15 colon
# [45] = tested on: DU-145 prostate
# [46] = tested on: SW-620 colon
# [47] = tested on: UACC-257 melanoma
# [48] = tested on: KM12 colon
# [49] = tested on: HS 578T breast
# [50] = tested on: UO-31 renal
# [51] = tested on: SK-MEL-2 melanoma
# [52] = tested on: HCT-116 colon
# [53] = tested on: NCI-H460 lung
# [54] = tested on: SNB-19 CNS
# [55] = tested on: SK-MEL-28 melanoma
# [56] = tested on: COLO 205 colon
# [57] = tested on: U251 CNS
# [58] = tested on: MDA-N
# [59] = tested on: M14 melanoma
smiles,measurement,setting,value
O=C(N/N=C\c1cccc2ccccc12)Nc1ccc([N+](=O)[O-])cc1,TGI,[1],> 100 µM
same,TGI,[2],> 87.2 µM
same,TGI,[3],> 100 µM
same,TGI,[4],> 100 µM
same,TGI,[5],> 66.4 µM
same,TGI,[6],> 100 µM
same,TGI,[7],> 100 µM
same,TGI,[8],97.2 µM
same,TGI,[9],26.2 µM
same,TGI,[10],> 60.2 µM
same,TGI,[11],> 100 µM
same,TGI,[12],59.2 µM
same,TGI,[13],> 100 µM
same,TGI,[14],> 100 µM
same,TGI,[15],> 73 µM
same,TGI,[16],> 69.4 µM
same,TGI,[17],> 100 µM
same,TGI,[18],> 100 µM
same,TGI,[19],> 71.6 µM
same,TGI,[20],> 88.9 µM
same,TGI,[21],> 70.3 µM
same,TGI,[22],> 100 µM
same,TGI,[23],> 42.6 µM
same,TGI,[24],> 100 µM
same,TGI,[25],> 100 µM
same,TGI,[26],> 41.4 µM
same,TGI,[27],> 71.4 µM
same,TGI,[28],38.3 µM
same,TGI,[29],> 71 µM
same,TGI,[30],> 80.9 µM
same,TGI,[31],> 53.9 µM
same,TGI,[32],> 37.8 µM
same,TGI,[33],> 68.5 µM
same,TGI,[34],> 53.5 µM
same,TGI,[35],> 100 µM
same,TGI,[36],> 100 µM
same,TGI,[37],> 100 µM
same,TGI,[38],> 70.5 µM
same,TGI,[39],> 100 µM
same,TGI,[40],> 72.7 µM
same,TGI,[41],> 100 µM
same,TGI,[42],> 100 µM
same,TGI,[43],> 100 µM
same,TGI,[44],> 100 µM
same,TGI,[45],> 60.7 µM
same,TGI,[46],> 100 µM
same,TGI,[47],> 100 µM
same,TGI,[48],> 100 µM
same,TGI,[49],> 100 µM
same,TGI,[50],> 61.8 µM
same,TGI,[51],> 68.7 µM
same,TGI,[52],> 53.7 µM
same,TGI,[53],> 76.6 µM
same,TGI,[54],> 100 µM
same,TGI,[55],> 100 µM
same,TGI,[56],> 60.7 µM
same,TGI,[57],> 100 µM
same,TGI,[58],> 89 µM
same,TGI,[59],> 100 µM
